From DBAASP
≈ marks a conversion by molar mass, not a printed value. Where “and” joins values, the source holds several entries; their conditions need not be identical. Equal values may be shown once. Values belong to the compound of their own block, whether it stands above or below them.

Columns and labels:
Assay in all cases: ≥ marks a high value that may be exact or a test limit, other limits are often not marked, values filed in µg/mL are converted to µM
[1] = test system: Staphylococcus aureus ATCC BAA-1556
Micrococcus luteus = test system: Micrococcus luteus
Bacillus subtilis = test system: Bacillus subtilis
[2] = test system: Candida albicans ATCC 2002
[3] = test system: Escherichia coli ATCC 25922
[4] = test system: Staphylococcus aureus ATCC 2592
[5] = test system: Klebsiella pneumoniae ATCC 13883
[6] = test system: Pseudomonas aeruginosa PAO1
[7] = test system: Staphylococcus aureus USA 300
Acinetobacter baumannii = test system: Acinetobacter baumannii
Enterococcus faecium = test system: Enterococcus faecium
Escherichia coli = test system: Escherichia coli
Klebsiella pneumoniae = test system: Klebsiella pneumoniae
Pseudomonas aeruginosa = test system: Pseudomonas aeruginosa
Staphylococcus aureus = test system: Staphylococcus aureus

MIC [1]: 12.5 µM (≈ 16 µg/mL)
Structure (SMILES): CC(C)C[C@H](NC(=O)[C@H](CCCCN)NC(=O)[C@H](CC(C)C)NC(=O)[C@H](CC(C)C)NC(=O)[C@H](Cc1c[nH]c2ccccc12)NC(=O)[C@H](CCCCN)NC(=O)[C@H](CC(C)C)NC(=O)[C@H](CC(C)C)NC(=O)[C@H](CCCCN)NC(=O)[C@@H](N)CCCCN)C(N)=O [KKLLKWLLKL]

MIC [1]: ≥ 100 µM
Structure (SMILES): CC(C)C[C@H](NC(=O)[C@H](CC(C)C)NC(=O)[C@H](CC(C)C)NC(=O)[C@H](CC(C)C)NC(=O)[C@H](CCCCN)NC(=O)[C@H](CCCCN)NC(=O)[C@H](CC(C)C)NC(=O)[C@H](CC(C)C)NC(=O)[C@@H](N)CC(C)C)C(N)=O [LLLKKLLLL]

MIC [1]: 6.25 µM (≈ 8.32 µg/mL)
Structure (SMILES): CC(C)C[C@H](NC(=O)[C@H](Cc1c[nH]c2ccccc12)NC(=O)[C@H](Cc1c[nH]c2ccccc12)NC(=O)[C@H](CC(C)C)NC(=O)[C@H](Cc1c[nH]c2ccccc12)NC(=O)[C@@H](N)Cc1c[nH]c2ccccc12)C(=O)N[C@@H](CCCN=C(N)N)C(=O)N[C@@H](Cc1c[nH]c2ccccc12)C(N)=O [WWLWWLRW]

MIC (Micrococcus luteus): 31.2 µM (≈ 98.3 µg/mL)
Structure (SMILES): CC[C@H](C)[C@H](NC(=O)[C@H](CCC(=O)O)NC(=O)[C@@H]1CCCN1C(=O)[C@H](CO)NC(=O)[C@H](Cc1ccccc1)NC(=O)[C@H](C)NC(=O)[C@@H](NC(=O)CNC(=O)[C@H](CC(C)C)NC(=O)[C@H](CCCCN)NC(=O)[C@H](C)NC(=O)[C@H](C)NC(=O)[C@H](CCSC)NC(=O)[C@@H](NC(=O)[C@@H](NC(=O)[C@@H](NC(=O)[C@H](CC(C)C)NC(=O)[C@H](CS)NC(=O)[C@H](CC(N)=O)NC(=O)CNC(=O)[C@H](CC(C)C)NC(=O)[C@H](CC(C)C)NC(=O)[C@@H](N)CCCN=C(N)N)[C@@H](C)O)C(C)C)C(C)C)[C@@H](C)O)C(=O)N[C@@H](CCC(N)=O)C(=O)N[C@@H](CS)C(=O)N[C@@H](C)C(=O)N[C@@H](Cc1c[nH]c2ccccc12)C(=O)N[C@@H](CCC(N)=O)C(=O)N[C@@H](CCCCN)C(=O)O [RLLGNCLTVVMAAKLGTAFSPEIQCAWQK]

MIC (Bacillus subtilis): 7.46 µM (≈ 10.5 µg/mL)
MIC [2]: 13.8 µM (≈ 19.4 µg/mL)
MIC [3]: 6.33 µM (≈ 8.89 µg/mL)
MIC [4]: 4.24 µM (≈ 5.95 µg/mL)
Structure (SMILES): CC[C@H](C)[C@@H]1NC(=O)[C@H](CO)NC(=O)[C@H](CCCCN)NC(=O)[C@H]([C@@H](C)O)NC(=O)[C@H](Cc2c[nH]c3ccccc23)NC(=O)[C@@H](N)CSSC[C@@H](C(=O)N[C@@H](Cc2ccccc2)C(=O)O)NC(=O)[C@@H]2CCCN2C(=O)[C@H](CCCCN)NC(=O)[C@@H]2CCCN2C(=O)[C@@H]2CCCN2C1=O [CWTKSIPPKPCF]

MIC [1]: ≥ 100 µM
Structure (SMILES): CC(C)C[C@H](NC(=O)[C@H](CC(C)C)NC(=O)[C@H](CCCCN)NC(=O)[C@H](CC(C)C)NC(=O)[C@H](CCCCN)NC(=O)[C@H](CC(C)C)NC(=O)[C@H](CC(C)C)NC(=O)[C@H](CC(C)C)NC(=O)[C@@H](N)CC(C)C)C(N)=O [LLLLKLKLL]

MIC [3]: 3.1 µM (≈ 4.02 µg/mL)
MIC [5]: 6.2 µM (≈ 8.04 µg/mL)
MIC [6]: 12.5 µM (≈ 16.2 µg/mL)
MIC [7]: 0.78 µM (≈ 1.01 µg/mL)
Structure (SMILES): CC(C)C[C@H](NC(=O)[C@H](CC(C)C)NC(=O)[C@H](CCCCN)NC(=O)CNC(=O)[C@H](CC(C)C)NC(=O)[C@H](CC(C)C)NC(=O)[C@H](CO)NC(=O)[C@H](CC(C)C)NC(=O)[C@H](CC(C)C)NC(=O)[C@H](CO)NC(=O)[C@H](CC(C)C)NC(=O)[C@H](C)NC(=O)CN)C(N)=O [GALSLLSLLGKLL]

MIC [3]: > 25 µM
MIC [5]: 25 µM (≈ 35.2 µg/mL)
MIC [6]: > 25 µM
MIC [7]: 6.2 µM (≈ 8.74 µg/mL)
Structure (SMILES): CC(C)C[C@H](NC(=O)[C@H](CC(C)C)NC(=O)[C@H](CCCCN)NC(=O)[C@H](CC(C)C)NC(=O)[C@H](CCCCN)NC(=O)[C@H](CC(C)C)NC(=O)[C@H](CO)NC(=O)[C@H](CC(C)C)NC(=O)[C@H](CC(C)C)NC(=O)[C@H](CC(C)C)NC(=O)[C@H](CO)NC(=O)[C@H](CC(C)C)NC(=O)CN)C(N)=O [GLSLLLSLKLKLL]

MIC (Acinetobacter baumannii): 2.83 µM and 1 µM
MIC (Enterococcus faecium): 1 µM (≈ 2.64 µg/mL)
MIC (Escherichia coli): 1.41 µM (≈ 3.74 µg/mL)
MIC (Klebsiella pneumoniae): 2.83 µM (≈ 7.47 µg/mL)
MIC (Pseudomonas aeruginosa): 2.83 µM and 2 µM and 5.66 µM
MIC [7]: 5.66 µM (≈ 14.9 µg/mL)
MIC (Staphylococcus aureus): 2 µM (≈ 5.28 µg/mL)
Structure (SMILES): CC[C@H](C)[C@H](NC(=O)[C@@H](NC(=O)[C@H](CO)NC(=O)[C@@H](NC(=O)[C@@H](NC(=O)[C@H](CCCCN)NC(=O)CNC(=O)[C@H](CC(C)C)NC(=O)[C@H](CC(C)C)NC(=O)CNC(=O)CNC(=O)[C@H](CC(C)C)NC(=O)[C@H](CC(C)C)NC(=O)CNC(=O)[C@H](CCCCN)NC(=O)[C@H](CO)NC(=O)[C@@H](NC(=O)[C@H](CCCCN)NC(=O)[C@H](Cc1c[nH]c2ccccc12)NC(=O)[C@H](Cc1c[nH]c2ccccc12)NC(=O)[C@H](CCCCN)NC(=O)[C@H](CCCCN)NC(=O)[C@@H](N)CC(C)C)[C@@H](C)O)C(C)C)[C@@H](C)O)C(C)C)C(=O)N[C@@H](CCCCN)C(=O)O [LKKWWKTSKGLLGGLLGKVTSVIK]

MIC [2]: 8.55 µM (≈ 12.5 µg/mL)
MIC [3]: 8.55 µM (≈ 12.5 µg/mL)
MIC [4]: 4.28 µM (≈ 6.25 µg/mL)
Structure (SMILES): CC[C@H](C)[C@H](NC(=O)[C@@H](N)Cc1ccccc1)C(=O)N1CCC[C@H]1C(=O)N[C@@H](CC(C)C)C(=O)N[C@H](C(=O)N[C@@H](CO)C(=O)NCC(=O)N[C@@H](CC(C)C)C(=O)N[C@@H](Cc1ccccc1)C(=O)N[C@@H](CO)C(=O)N[C@@H](CCCN=C(N)N)C(=O)N[C@@H](CC(C)C)C(=O)N[C@@H](CC(C)C)C(N)=O)C(C)C [FIPLVSGLFSRLL]

MIC [1]: 12.5 µM (≈ 13.3 µg/mL)
Structure (SMILES): CC(C)C[C@H](NC(=O)[C@H](CC(C)C)NC(=O)[C@H](CC(C)C)NC(=O)[C@H](CC(C)C)NC(=O)[C@H](CC(C)C)NC(=O)[C@H](CCCCN)NC(=O)[C@H](CCCCN)NC(=O)[C@H](CC(C)C)NC(=O)[C@@H](N)CC(C)C)C(N)=O [LLKKLLLLL]

MIC [1]: 25 µM (≈ 32.1 µg/mL)
Structure (SMILES): CC[C@H](C)[C@H](NC(=O)[C@H](C)NC(=O)[C@H](CCCN=C(N)N)NC(=O)[C@H](CCCN=C(N)N)NC(=O)[C@H](Cc1c[nH]c2ccccc12)NC(=O)[C@@H](N)CCCCN)C(=O)N[C@@H](CCCN=C(N)N)C(=O)N[C@@H](Cc1c[nH]c2ccccc12)C(=O)N[C@@H](CC(C)C)C(N)=O [KWRRAIRWL]

MIC [1]: 3.12 µM (≈ 4.37 µg/mL)
Structure (SMILES): CC(C)C[C@H](NC(=O)[C@H](Cc1c[nH]c2ccccc12)NC(=O)[C@H](CCCN=C(N)N)NC(=O)[C@H](CC(C)C)NC(=O)[C@H](Cc1c[nH]c2ccccc12)NC(=O)[C@H](CCCN=C(N)N)NC(=O)[C@H](CCCN=C(N)N)NC(=O)[C@H](Cc1c[nH]c2ccccc12)NC(=O)[C@@H](N)CCCCN)C(N)=O [KWRRWLRWL]

MIC (Bacillus subtilis): ≥ 38.4 µM
MIC [2]: ≥ 38.4 µM
MIC [3]: > 38.4 µM
MIC [4]: ≥ 38.4 µM
Structure (SMILES): CC(C)[C@H](N)C(=O)N[C@@H](CCCCN)C(=O)N[C@@H](Cc1c[nH]c2ccccc12)C(=O)N[C@@H](CCCN=C(N)N)C(=O)N[C@@H](Cc1c[nH]c2ccccc12)C(=O)N[C@@H](CCCCN)C(=O)N[C@@H](Cc1c[nH]c2ccccc12)C(=O)N[C@@H](CCCCN)C(=O)N[C@@H](Cc1c[nH]c2ccccc12)C(=O)N[C@@H](CCCN=C(N)N)C(=O)N[C@@H](Cc1c[nH]c2ccccc12)C(=O)N[C@@H](CCCCN)C(=O)N[C@@H](Cc1c[nH]c2ccccc12)C(=O)N[C@@H](CCCCN)C(=O)N[C@@H](Cc1c[nH]c2ccccc12)C(=O)N[C@@H](CCCCN)C(=O)N[C@H](C(N)=O)C(C)C [VKWRWKWKWRWKWKWKV]

MIC (Bacillus subtilis): ≥ 41.4 µM
MIC [2]: ≥ 41.4 µM
MIC [3]: > 41.4 µM
MIC [4]: ≥ 41.4 µM
Structure (SMILES): CC(C)[C@H](N)C(=O)N[C@@H](CCCCN)C(=O)N[C@@H](Cc1c[nH]c2ccccc12)C(=O)N[C@@H](CCCN=C(N)N)C(=O)N[C@@H](Cc1c[nH]c2ccccc12)C(=O)N[C@@H](CCCCN)C(=O)N[C@@H](CCCCN)C(=O)N[C@@H](Cc1c[nH]c2ccccc12)C(=O)N[C@@H](CCCN=C(N)N)C(=O)N[C@@H](Cc1c[nH]c2ccccc12)C(=O)N[C@@H](CCCCN)C(=O)N[C@@H](Cc1c[nH]c2ccccc12)C(=O)N[C@@H](CCCCN)C(=O)N[C@@H](Cc1c[nH]c2ccccc12)C(=O)N[C@@H](CCCCN)C(=O)N[C@H](C(N)=O)C(C)C [VKWRWKKWRWKWKWKV]

MIC [3]: > 25 µM
MIC [5]: 25 µM (≈ 22.2 µg/mL)
MIC [6]: > 25 µM
MIC [7]: 25 µM (≈ 22.2 µg/mL)
Structure (SMILES): CC(C)C[C@H](NC(=O)[C@H](CC(C)C)NC(=O)[C@H](CCCCN)NC(=O)CNC(=O)[C@H](CC(C)C)NC(=O)[C@H](CO)NC(=O)[C@H](CO)NC(=O)[C@H](CC(C)C)NC(=O)CN)C(N)=O [GLSSLGKLL]

MIC [1]: 6.25 µM (≈ 9.02 µg/mL)
Structure (SMILES): CC(C)C[C@H](NC(=O)[C@H](Cc1c[nH]c2ccccc12)NC(=O)[C@H](Cc1c[nH]c2ccccc12)NC(=O)[C@H](CC(C)C)NC(=O)[C@H](Cc1c[nH]c2ccccc12)NC(=O)[C@H](Cc1c[nH]c2ccccc12)NC(=O)[C@H](CC(C)C)NC(=O)[C@H](Cc1c[nH]c2ccccc12)NC(=O)[C@@H](N)CCCN=C(N)N)C(N)=O [RWLWWLWWL]

MIC [1]: 25 µM (≈ 33.1 µg/mL)
Structure (SMILES): CC[C@H](C)[C@H](NC(=O)[C@H](CC(C)C)NC(=O)[C@H](CCCN=C(N)N)NC(=O)[C@H](CCCN=C(N)N)NC(=O)[C@H](Cc1c[nH]c2ccccc12)NC(=O)[C@@H](N)CCCCN)C(=O)N[C@@H](CCCN=C(N)N)C(=O)N[C@@H](Cc1c[nH]c2ccccc12)C(=O)N[C@@H](CC(C)C)C(N)=O [KWRRLIRWL]
